# Source: patent publication US12018021B2 (UCB Biopharma SRL, priority 2018, dated 2024)
# Biological target: IgE-Tb / sFcεRIα-Y131A-AF488 (Homo sapiens, UniProt P01854, N146Q/N252Q)
# Assay: IgE-Tb / sFcεRIα-Y131A-AF488 FRET assay (protocol for examples 234 to 501)
# Type: binding
# Details: examples 234 to 501: compound with IgE-Tb 30 minutes before sFcεRIα-Y131A-AF488, incubated 18 hours at room temperature; read-out: Y131A FRET IC50 range
# Summary of the method: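 Read-out is the 520/490 nm emission ratio (337 nm excitation) after 18 h at room temperature, background subtracted, fitted four-parameter for IC50. Final reagents: 5 nM IgE-Tb, preincubated 30 min with compound (top typically 10 μM, 2% DMSO, 3-fold 10-point), plus 25 nM sFcεRIα-Y131A-AF488.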
# Sequence of IgE-Tb / sFcεRIα-Y131A-AF488 (P01854 whole entry N146Q/N252Q): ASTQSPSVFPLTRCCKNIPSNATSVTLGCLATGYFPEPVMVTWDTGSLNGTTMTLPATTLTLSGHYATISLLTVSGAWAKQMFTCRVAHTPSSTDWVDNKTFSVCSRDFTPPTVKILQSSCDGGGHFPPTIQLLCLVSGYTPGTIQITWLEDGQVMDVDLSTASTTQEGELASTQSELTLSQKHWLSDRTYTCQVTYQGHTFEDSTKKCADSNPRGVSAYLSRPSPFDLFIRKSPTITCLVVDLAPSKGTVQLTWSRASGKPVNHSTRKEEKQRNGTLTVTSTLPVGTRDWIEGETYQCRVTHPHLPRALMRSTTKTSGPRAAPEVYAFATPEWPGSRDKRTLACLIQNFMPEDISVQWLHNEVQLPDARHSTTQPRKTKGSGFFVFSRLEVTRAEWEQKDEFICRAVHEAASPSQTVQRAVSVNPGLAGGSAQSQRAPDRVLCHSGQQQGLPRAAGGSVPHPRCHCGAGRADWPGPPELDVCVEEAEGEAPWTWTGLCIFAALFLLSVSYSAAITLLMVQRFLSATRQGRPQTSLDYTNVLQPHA
row,SMILES,IC50 [nM]
1,"Cn1nc(OC(F)F)cc1Nc1nncn1[C@H]1CCc2sc(NC(=O)C3CC3)c(C(=O)N[C@H]3C[C@@H](F)C3)c2C1 [Example 447, (5S)-2-(cyclopropanecarbonylamino)-5-[3-[[5-(difluoromethoxy)-2-methylpyrazol-3-yl]amino]-1,2,4-triazol-4-yl]-N-(cis-3-fluorocyclobutyl)-4,5,6,7-tetrahydro-1-benzothiophene-3-carboxamide]",< 1000
2,"CC1CC(NC(=O)c2c(NC(=O)C3CC3)sc3c2C[C@@H](n2cnnc2Nc2cc(OC(F)F)nn2C)CC3)C1 (stereo partly drawn) [Example 448, (5S)-2-(cyclopropanecarbonylamino)-5-[3-[[5-(difluoromethoxy)-2-methylpyrazol-3-yl]amino]-1,2,4-triazol-4-yl]-N-(3-methylcyclobutyl)-4,5,6,7-tetrahydro-1-benzothiophene-3-carboxamide]",< 1000
3,"Cn1nc(OC(F)F)cc1Nc1nncn1[C@H]1CCc2sc(NC(=O)C3CC3)c(C(=O)N[C@H]3C[C@H](F)C3)c2C1 [Example 449, (5S)-2-(cyclopropanecarbonylamino)-5-[3-[[5-(difluoromethoxy)-2-methylpyrazol-3-yl]amino]-1,2,4-triazol-4-yl]-N-(trans-3-fluorocyclobutyl)-4,5,6,7-tetrahydro-1-benzothiophene-3-carboxamide]",< 1000
4,"Cn1nc(OC(F)F)cc1Nc1nncn1[C@H]1CCc2sc(NC(=O)C3CC3)c(C(=O)NC3CC(F)(F)C3)c2C1 [Example 450, (5S)-2-(cyclopropanecarbonylamino)-N-(3,3-difluorocyclobutyl)-5-[3-[[5-(difluoromethoxy)-2-methylpyrazol-3-yl]amino]-1,2,4-triazol-4-yl]-4,5,6,7-tetrahydro-1-benzothiophene-3-carboxamide]",< 1000
5,"Cn1nc(OC(F)F)cc1Nc1nncn1[C@H]1CCc2sc(NC(=O)C3CC3)c(C(=O)NCC3CCC3(F)F)c2C1 (stereo partly drawn) [Example 451, (5S)-2-(cyclopropanecarbonylamino)-N-[(2,2-difluorocyclobutyl)methyl]-5-[3-[[5-(difluoromethoxy)-2-methylpyrazol-3-yl]amino]-1,2,4-triazol-4-yl]-4,5,6,7-tetrahydro-1-benzothiophene-3-carboxamide]",< 1000
6,"CC1CC1CNC(=O)c1c(NC(=O)C2CC2)sc2c1C[C@@H](n1cnnc1Nc1cc(OC(F)F)nn1C)CC2 (stereo partly drawn) [Example 453, (5S)-2-(cyclopropanecarbonylamino)-5-[3-[[5-(difluoromethoxy)-2-methylpyrazol-3-yl]amino]-1,2,4-triazol-4-yl]-N-[(2-methylcyclopropyl)methyl]-4,5,6,7-tetrahydro-1-benzothiophene-3-carboxamide]",< 1000
7,"Cn1nc(OC(F)F)cc1Nc1nncn1[C@H]1CCc2sc(NC(=O)C3CC3)c(C(=O)NC[C@H]3C[C@H](F)C3)c2C1 [Example 456, (5S)-2-(cyclopropanecarbonylamino)-5-[3-[[5-(difluoromethoxy)-2-methylpyrazol-3-yl]amino]-1,2,4-triazol-4-yl]-N-[trans-(3-fluorocyclobutyl)methyl]-4,5,6,7-tetrahydro-1-benzothiophene-3-carboxamide]",< 1000
8,"Cn1nc(OC(F)F)cc1Nc1nncn1[C@H]1CCc2sc(NC(=O)C3CC3)c(C(=O)NCC3CCC3F)c2C1 (stereo partly drawn) [Example 457, (5S)-2-(cyclopropanecarbonylamino)-5-[3-[[5-(difluoromethoxy)-2-methylpyrazol-3-yl]amino]-1,2,4-triazol-4-yl]-N-[(2-fluorocyclobutyl)methyl]-4,5,6,7-tetrahydro-1-benzothiophene-3-carboxamide]",< 1000
9,"Cn1nc(OC(F)F)cc1Nc1nncn1[C@H]1CCc2sc(NC(=O)C3CC3)c(C(=O)NC[C@H]3C[C@H]3F)c2C1 [Example 461, (5S)-2-(cyclopropanecarbonylamino)-5-[3-[[5-(difluoromethoxy)-2-methylpyrazol-3-yl]amino]-1,2,4-triazol-4-yl]-N-[[(1R,2R)-2-fluorocyclopropyl]methyl]-4,5,6,7-tetrahydro-1-benzothiophene-3-carboxamide]",< 1000
10,"Cn1nc(OC(F)F)cc1Nc1nncn1[C@H]1CCc2sc(NC(=O)C3CC3)c(C(=O)NC[C@H]3C[C@@H]3F)c2C1 [Example 462, (5S)-2-(cyclopropanecarbonylamino)-5-[3-[[5-(difluoromethoxy)-2-methylpyrazol-3-yl]amino]-1,2,4-triazol-4-yl]-N-[[(1R,2S)-2-fluorocyclopropyl]methyl]-4,5,6,7-tetrahydro-1-benzothiophene-3-carboxamide]",< 1000
11,"COc1cc(Nc2nncn2[C@H]2CCc3sc(NC(=O)[C@H]4C[C@@H]4C)c(C(=O)NC[C@H]4C[C@@H]4F)c3C2)n(C)n1 [Example 466, (5S)—N-[[(1R,2S)-2-fluorocyclopropyl]methyl]-5-[3-[(5-methoxy-2-methylpyrazol-3-yl)amino]-1,2,4-triazol-4-yl]-2-[[(1S,2S)-2-methylcyclopropanecarbonyl]amino]-4,5,6,7-tetrahydro-1-benzothiophene-3-carboxamide]",< 1000
12,"COc1cc(Nc2nncn2[C@H]2CCc3sc(NC(=O)[C@H]4C[C@@H]4C)c(C(=O)NC[C@H]4C[C@H](F)C4)c3C2)n(C)n1 [Example 467, (5S)—N-[trans-(3-fluorocyclobutyl)methyl]-5-[3-[(5-methoxy-2-methylpyrazol-3-yl)amino]-1,2,4-triazol-4-yl]-2-[[(1S,2S)-2-methylcyclopropanecarbonyl]amino]-4,5,6,7-tetrahydro-1-benzothiophene-3-carboxamide]",< 1000
13,"COc1cc(Nc2nncn2[C@H]2CCc3sc(NC(=O)[C@H]4C[C@@H]4C)c(C(=O)NCC4CC4)c3C2)n(C)n1 [Example 468, (5S)—N-(cyclopropylmethyl)-5-[3-[(5-methoxy-2-methylpyrazol-3-yl)amino]-1,2,4-triazol-4-yl]-2-[[(1S,2S)-2-methylcyclopropanecarbonyl]amino]-4,5,6,7-tetrahydro-1-benzothiophene-3-carboxamide]",< 1000
14,"Cn1nc(C(F)F)cc1Nc1nncn1[C@H]1CCc2sc(NC(=O)[C@H]3C[C@H](F)C3)c(C(=O)NC[C@H]3C[C@@H]3F)c2C1 [Example 471, (5S)-5-[3-[[5-(difluoromethyl)-2-methylpyrazol-3-yl]amino]-1,2,4-triazol-4-yl]-2-[trans-(3-fluorocyclobutanecarbonyl)amino]-N-[[(1R,2S)-2-fluorocyclopropyl]methyl]-4,5,6,7-tetrahydro-1-benzothiophene-3-carboxamide]",< 1000
15,"Cn1nc(C(F)F)cc1Nc1nncn1[C@H]1CCc2sc(NC(=O)[C@H]3C[C@H](F)C3)c(C(=O)NCC3CCC3)c2C1 [Example 473, (5S)—N-(cyclobutylmethyl)-5-[3-[[5-(difluoromethyl)-2-methylpyrazol-3-yl]amino]-1,2,4-triazol-4-yl]-2-[trans-(3-fluorocyclobutanecarbonyl)amino]-4,5,6,7-tetrahydro-1-benzothiophene-3-carboxamide]",< 1000
16,"Cn1nc(C(F)F)cc1Nc1nncn1[C@H]1CCc2sc(NC(=O)C3CC(F)(F)C3)c(C(=O)NC[C@H]3C[C@H]3F)c2C1 [Example 479, (5S)-2-[(3,3-difluorocyclobutanecarbonyl)amino]-5-[3-[[5-(difluoromethyl)-2-methylpyrazol-3-yl]amino]-1,2,4-triazol-4-yl]-N-[[(1R,2R)-2-fluorocyclopropyl]methyl]-4,5,6,7-tetrahydro-1-benzothiophene-3-carboxamide]",< 1000
